Results published in patent publication US9322032B2, “Arabidopsis ring E3 ubiquitin ligase for promotion of plant germination” (INDUSTRY-ACADEMIC COOPERATION FOUNDATION, YONSEI UNIVERSITY, priority 2011, dated 2016).

T1: E3 ubiquitin ligase (Arabidopsis thaliana, UniProt Q9M022)
T1 construct: the ORF of the AtAIRP2 gene was subcloned into pMAL-X vector in-frame with MBP; made in house; host or cells: Escherichia coli BL21-CodonPlus (DE3) RIL
T1 sequence (Q9M022 1-242): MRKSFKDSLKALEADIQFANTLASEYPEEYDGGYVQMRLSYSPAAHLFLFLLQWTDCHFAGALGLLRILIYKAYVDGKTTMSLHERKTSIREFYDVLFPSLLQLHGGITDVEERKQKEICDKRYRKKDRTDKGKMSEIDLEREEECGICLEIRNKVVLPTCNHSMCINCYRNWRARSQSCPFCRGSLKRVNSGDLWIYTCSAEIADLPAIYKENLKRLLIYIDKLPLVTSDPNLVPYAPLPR


Experiments:
[1] = tested on: AtAIRP2 gene promoter; assay: Histochemical GUS assay of AtAIRP2 promoter activity; type: in vivo, Arabidopsis thaliana; settings: 100 μM ABA, 3 hours
Procedure: […] After removal of the acetone, the plant was washed 3 times with rincing solution containing 50 mM NaPO4, 1 mM K3Fe(CN)6, and 1 mM K4Fe(CN)6, and immersed in 2 mM X-Gluc (5-bromo-4-chloro-3-indolyl glucuronide, sigma) and vacuumed for 1 min. After staining at 37° C. in the dark until the color was changed, the plant was incubated in 90% ethanol to remove chlorophyll.
(§1) The AtAIRP2 gene expressions in various abiotic stresses were analyzed by RT-PCR. After treatments of low-temperature (12 hours and 24 hours), drought (1 hour and 2 hours), salt (1.5 hour and 3 hours) and ABA hormone (1.5 hour and 3 hours) stresses, RNA from each of samples was extracted to analyze the gene expression patterns. As a result, it was determined that the gene expression levels of stress treatments were increased than those of non-stress treatments, thereby the AtAIRP2 gene expression is induced by salt, low-temperature, drought and ABA hormone stresses (FIG. 1). In addition, the AtAIRP2 protein expressions in various abiotic stresses were analyzed by histochemical GUS assay. After treatments of ABA hormone (3 hours) and drought (2 hours) stresses, the degree of the staining was analyzed. As a result, it was determined that the degrees of the staining of stress treatments were increased than those of before the stress treatments (FIG. 2).

[2] = tested on: AtAIRP2 gene; assay: AtAIRP2 gene expression by RT-PCR after stress treatment; type: in vivo, Arabidopsis thaliana; settings: 100 μM ABA, 1.5 hour and 3 hours, 2-week-old wild type seedlings
Procedure: In order to determine expressions of the AtAIRP2 gene to drought stress, the wild type Arabidopsis thaliana seedlings which were grown on medium for 2 weeks were exposed in the air, and sampled after 1 hour and 2 hours. In order to determine expressions of the AtAIRP2 gene to salt stress, the wild type Arabidopsis thaliana seedlings which were grown on medium for 2 weeks were treated with 300 mM sodium chloride, and sampled after 1.5 hour and 3 hours. In order to determine expressions of the AtAIRP2 gene to low-temperature stress, the wild type Arabidopsis thaliana seedlings which were grown on medium for 2 weeks were incubated at 4° C. for 12 hours and 24 hours, and sampled. […]
as §1, with “After treatments of low-temperature (12 hours and 24 hours), drought (1 hour and 2 hours), salt (1.5 hour and 3 hours) and ABA hormone (1.5 hour and 3 hours) stresses, RNA from each of samples was extracted to analyze the gene expression patterns.” left out

[3] = target: T1, E3 ubiquitin ligase; assay: Self-ubiquitination assay (Western blot, anti-MBP and anti-ubiquitin); type: biochemical; settings: with UBA1, UBC8, ubiquitin, 30° C., 1 hour
Procedure: For the enzymatic activity analysis of the AtAIRP2 protein, the ORF of the AtAIRP2 gene was subcloned into pMAL-X vector in-frame with MBP (maltose-binding protein). 40 mM Tris-HCI, pH 7.5, 5 mM MgCl2, 2 mM ATP, 2 mM dithiothreitol (DTT), 300 ng/μL ubiquitin (Sigma), 25 μM MG132 (A.G. Scientific Inc.), 500 ng UBA1 (ABRC, www.arabidopsis.org), 500 ng UBC8 (ABRC, www.arabidopsis.org) and 500 ng MBP-AtAIRP2 were added to each of tubes and incubated at 30° C. After addition of sample buffer solution, the resultant was heated at 100° C. for 5min, and performed by Western blot using anti-MBP (New England Bio Labs) and anti-ubiquitin (Santa Cruz) antibodies.
Maltose-binding protein (MBP) was bound to the AtAIRP2 proteins. Then, the MBP-AtAIRP2 was incubated with UBA1, UBC8, ubiquitin and AtAIRP2 at 30° C. for 1 hour to perform Self-Ubiquitination, and performed by Western blot using MBP- and ubiquitin-specific antibodies to analyze changes in the protein levels. As a result, it was determined that the molecular weight of the AtAIRP2 protein was increased through Western blot using anti-MBP antibody, and the increase was induced due to ubiquitin (FIG. 3).

Molecule	GUS signals (AtAIRP2 promoter activity) [1]	AtAIRP2 gene expression [2]	enzymatic activity of E3 ubiquitin ligase [3]
CC1=CC(=O)CC(C)(C)C1(O)/C=C/C(C)=C\C(=O)O (stereo not drawn) [ABA]	markedly induced	induced	–
AtAIRP2 protein: RING protein encoded by At5g01520 (SEQ ID NO:2), tested as maltose-binding protein fusion (protein, left off: large carriers) MRKSFKDSLKALEADIQFANTLASEYPEEYDGGYVQMRLSYSPAAHLFLFLLQWTDCHFAGALGLLRILIYKAYVDGKTTMSLHERKTSIREFYDVLFPSLLQLHGGITDVEERKQKEICDKRYRKKDRTDKGKMSEIDLEREEECGICLEIRNKVVLPTCNHSMCINCYRNWRARSQSCPFCRGSLKRVNSGDLWIYTCSAEIADLPAIYKENLKRLLIYIDKLPLVTSDPNLVPYAPLPR	–	–	possessed ability for enzymatic activity of E3 ubiquitin ligase
